US20110178104A1, “Anti-Heparin Compounds” (POLYMEDIX INC., priority 2010, published 2011)
pEC50: −log10 of the molar value.

Columns and labels:
Unfractionated heparin = test: aPTT clotting assay, UFH 0.4 U/mL in plasma (Example 10); format: biochemical; conditions: unfractionated heparin 0.4 U/mL in plasma; aPTT clotting
Method: aPTT clotting Assay: Unfractionated heparin was mixed with plasma at a final concentration of 0.4 U/mL (or concentration which increases aPTT time to between 120 and 300 seconds). […] The ACL Elite Hemostasis analyzer (Beckman Coulter™) was used to add aPTT reagent (HemosIL SynthASil) to supplemented plasma. Clotting was initiated by addition of CaCl2 and time to clot was recorded.

enoxaparin = test: FXa amidolytic assay (Example 10), enoxaparin; conditions: read-out: Enox FXa EC50; enoxaparin 0.1 ug/ml; human antithrombin, bovine Factor Xa
Method: (§1) Two μl of test agent are added (range between 0.01 and 23 ug/ml) and incubated for 5 minutes at 23° C. Bovine Factor Xa was added to a final concentration of 0.636 nkat/mL and incubated for a further 10 minutes at 23° C.

tinzaparin = test: FXa amidolytic assay (Example 10), tinzaparin; conditions: read-out: Tinzap FXa EC50; tinzaparin 0.1 ug/ml; human antithrombin, bovine Factor Xa
Method: as §1

fondaparinux = test: FXa amidolytic assay (Example 10), fondaparinux; conditions: read-out: Fondap FXa EC50; fondaparinux 0.02 μg/mL; human antithrombin, bovine Factor Xa
Method: as §1

| SMILES | pEC50 (Unfractionated heparin) | pEC50 (enoxaparin) | pEC50 (tinzaparin) | pEC50 (fondaparinux) |
| --- | --- | --- | --- | --- |
| COc1ccc(NC(=O)[C@H](CCCNC(=N)N)NC(=O)c2cc(NC(=O)[C@H](CCCNC(=N)N)NC(=O)c3cc(NC(=O)[C@H](CCCNC(=N)N)NC(=O)c4cc(NC(C)=O)ccc4OC)ccc3OC)ccc2OC)cc1C(=O)N[C@@H](Cc1ccc(O)cc1)C(=O)O [Compound 301] | 5.22 | 6.56 | 6.56 | 6.53 |
| COc1ccc(NC(C)=O)cc1C(=O)N[C@@H](CCCNC(=N)N)C(=O)Nc1ccc(OC)c(C(=O)N[C@@H](CCCNC(=N)N)C(=O)Nc2ccc(OC)c(C(=O)N[C@@H](CCCNC(=N)N)C(=O)Nc3ccc(OC)c(C(=O)N[C@H](Cc4ccc(O)cc4)C(=O)O)c3)c2)c1 [Compound 302] | 4.97 | 6.53 | 6.56 | 6.31 |
| COc1ccc(NC(=O)[C@H](CCC(=O)O)NC(=O)c2cc(NC(=O)[C@H](CCCCN)NC(=O)c3cc(NC(=O)[C@H](CCCCN)NC(=O)c4cc(NC(=O)[C@@H](N)CCCCN)ccc4OC)ccc3OC)ccc2OC)cc1C(N)=O [Compound 315] | 5.69 | 5.75 | 6.31 | < 5.00 |
| COc1ccc(NC(=O)[C@H](CCCCN)NC(=O)c2cc(NC(=O)[C@H](CCC(=O)O)NC(=O)c3cc(NC(=O)[C@H](CCCCN)NC(=O)c4cc(NC(=O)[C@@H](N)CCCCN)ccc4OC)ccc3OC)ccc2OC)cc1C(N)=O [Compound 316] | 5.69 | 6.48 | 6.65 | 5.76 |
| COc1ccc(NC(=O)[C@H](CCCCN)NC(=O)c2cc(NC(=O)[C@H](CCCCN)NC(=O)c3cc(NC(=O)[C@H](CCCCN)NC(=O)c4cc(NC(=O)[C@@H](N)CCC(=O)O)ccc4OC)ccc3OC)ccc2OC)cc1C(N)=O [Compound 318] | 5.85 | 6.39 | 6.58 | 5.52 |
| COc1ccc(NC(=O)[C@@H](CCC(=O)O)NC(=O)c2cc(NC(=O)[C@@H](CCCNC(=N)N)NC(=O)c3cc(NC(=O)[C@@H](CCCNC(=N)N)NC(=O)c4cc(NC(=O)[C@H](N)CCCNC(=N)N)ccc4OC)ccc3OC)ccc2OC)cc1C(N)=O [Compound 319] | 5.61 | 6.56 | 6.75 | 5.98 |
| COc1ccc(NC(=O)[C@@H](CCCNC(=N)N)NC(=O)c2cc(NC(=O)[C@@H](CCC(=O)O)NC(=O)c3cc(NC(=O)[C@@H](CCCNC(=N)N)NC(=O)c4cc(NC(=O)[C@H](N)CCCNC(=N)N)ccc4OC)ccc3OC)ccc2OC)cc1C(N)=O [Compound 320] | 5.62 | 6.05 | 6.55 | 5.31 |
| COc1ccc(NC(=O)[C@H](CCC(=O)O)NC(=O)c2cc(NC(=O)[C@H](CCCNC(=N)N)NC(=O)c3cc(NC(=O)[C@H](CCCNC(=N)N)NC(=O)c4cc(NC(=O)[C@@H](N)CCCNC(=N)N)ccc4OC)ccc3OC)ccc2OC)cc1C(N)=O [Compound 323] | 5.53 | 6.49 | 6.60 | 5.94 |
| COc1ccc(NC(=O)[C@H](CCCNC(=N)N)NC(=O)c2cc(NC(=O)[C@H](CCC(=O)O)NC(=O)c3cc(NC(=O)[C@H](CCCNC(=N)N)NC(=O)c4cc(NC(=O)[C@@H](N)CCCNC(=N)N)ccc4OC)ccc3OC)ccc2OC)cc1C(N)=O [Compound 324] | 5.53 | 6.11 | 6.36 | 5.42 |
| COc1ccc(NC(=O)[C@H](CCCNC(=N)N)NC(=O)c2cc(NC(=O)[C@H](CCCNC(=N)N)NC(=O)c3cc(NC(=O)[C@H](CCCNC(=N)N)NC(=O)c4cc(NC(=O)[C@@H](N)CCC(=O)O)ccc4OC)ccc3OC)ccc2OC)cc1C(N)=O [Compound 326] | 5.70 | 6.54 | 6.63 | 6.26 |
| COc1ccc(NC(=O)[C@H](CCCCN)NC(=O)c2cc(NC(=O)[C@H](CCCCN)NC(=O)c3cc(NC(=O)[C@H](CCCCN)NC(=O)c4cc(N)ccc4OC)ccc3OC)ccc2OC)cc1C(N)=O [Compound 327] | 5.71 | 5.99 | 6.33 | 5.17 |
| COc1ccc(NC(=O)[C@H](CCCCN)NC(=O)c2cc(NC(=O)[C@H](CCCCN)NC(=O)c3cc(NC(=O)[C@H](CCCCN)NC(=O)c4cc(NC(C)=O)ccc4OC)ccc3OC)ccc2OC)cc1C(N)=O [Compound 328] | 5.73 | 6.35 | 6.59 | 5.63 |
| COc1ccc(NC(=O)[C@H](CCCCN)NC(=O)c2cc(NC(=O)[C@H](CCCCN)NC(=O)c3cc(NC(=O)[C@H](CCCCN)NC(=O)c4cc(NC(=O)[C@H](CCCCN)NC(=O)CCC(=O)O)ccc4OC)ccc3OC)ccc2OC)cc1C(N)=O [Compound 339] | 6.04 | 6.57 | 6.63 | 5.72 |
| COc1ccc(NC(=O)[C@H](CCCCN)NC(=O)c2cc(NC(=O)[C@H](CCCCN)NC(=O)c3cc(NC(=O)[C@H](CCCCN)NC(=O)c4cc(NC(=O)[C@H](CCCCN)NC(=O)c5cccc(C(=O)O)c5)ccc4OC)ccc3OC)ccc2OC)cc1C(N)=O [Compound 342] | 5.63 | 6.82 | 6.83 | 6.78 |
| COc1ccc(NC(=O)[C@H](CCCCN)NC(=O)c2cc(NC(=O)[C@H](CCCCN)NC(=O)c3cc(NC(=O)[C@H](CCCCN)NC(=O)c4cc(NC(=O)[C@H](CCCCN)NC(=O)CCCC(=O)O)ccc4OC)ccc3OC)ccc2OC)cc1C(N)=O [Compound 344] | 6.17 | 6.41 | 6.61 | 5.69 |
| COc1ccc(NC(=O)[C@H](CCCCN)NC(=O)c2cc(NC(=O)[C@H](CCCCN)NC(=O)c3cc(NC(=O)[C@H](CCCCN)NC(=O)c4cc(NC(=O)[C@H](CCCCN)NC(=O)COCC(=O)O)ccc4OC)ccc3OC)ccc2OC)cc1C(N)=O [Compound 345] | 5.52 | 6.63 | 6.69 | 6.04 |
| COc1cc(OC)c(C(=O)NCCCNC(=O)c2cc(C(=O)NCCCNC(=O)c3cc(C(=O)NCCN)c(OC)cc3OC)c(OC)cc2OC)cc1C(=O)NCCN [Compound 391] | < 5.00 | < 5.30 | < 5.30 | < 5.00 |
| COc1cc(OC)c(C(=O)NCCCNC(=O)c2cc(C(=O)NCCN)c(OC)cc2OC)cc1C(=O)O [Compound 392] | < 5.00 | < 5.30 | < 5.30 | < 5.00 |
| COc1cc(OC)c(C(=O)NC2CCN(C(=O)c3cc(C(=O)N4CCC(NC(=O)c5cc(C(=O)NCCN)c(OC)cc5OC)CC4)c(OC)cc3OC)CC2)cc1C(=O)NCCN [Compound 393] | < 5.00 | < 5.30 | < 5.30 | < 5.00 |
| COc1cc(OC)c(C(=O)N2CCC(NC(=O)c3cc(C(=O)NCCN)c(OC)cc3OC)CC2)cc1C(=O)O [Compound 394] | < 5.00 | < 5.30 | < 5.30 | < 5.00 |
| COc1cc(OC)c(C(=O)NCC2CCN(C(=O)c3cc(C(=O)N4CCC(CNC(=O)c5cc(C(=O)NCCN)c(OC)cc5OC)CC4)c(OC)cc3OC)CC2)cc1C(=O)NCCN [Compound 395] | < 5.00 | < 5.30 | < 5.30 | < 5.00 |
| COc1cc(OC)c(C(=O)N2CCC(CNC(=O)c3cc(C(=O)NCCN)c(OC)cc3OC)CC2)cc1C(=O)O [Compound 396] | < 5.00 | < 5.30 | < 5.30 | < 5.00 |
| COc1cc(OC)c(C(=O)N[C@H]2CC[C@H](NC(=O)c3cccc(C(=O)O)c3)CC2)cc1C(=O)NCCN [Compound 399] | < 5.00 | < 5.30 | < 5.30 | < 5.00 |
| COc1cc(OC)c(C(=O)N[C@H]2CC[C@H](NC(=O)c3cncc(C(=O)O)c3)CC2)cc1C(=O)NCCN [Compound 401] | < 5.00 | < 5.30 | < 5.30 | < 5.00 |
| COc1cc(OC)c(C(=O)N[C@H]2CC[C@H](NC(=O)c3cc(C(=O)O)ncn3)CC2)cc1C(=O)NCCN [Compound 403] | < 5.00 | < 5.30 | < 5.30 | < 5.00 |
| COc1cc(OC)c(C(=O)N[C@H]2CC[C@@H](NC(=O)c3cc(C(=O)N[C@H]4CC[C@@H](N=C(N(C)C)N(C)C)CC4)c(OC)cc3OC)CC2)cc1C(=O)NCCCN [Compound 405] | < 5.00 | < 5.30 | < 5.30 | < 5.00 |
| COc1cc(OC)c(C(=O)N[C@H]2CC[C@H](NC(=O)c3cc(C(=O)NCCCN)c(OC)cc3OC)CC2)cc1C(=O)O [Compound 407] | < 5.00 | < 5.30 | < 5.30 | < 5.00 |
| COc1cc(OC)c(C(=O)NCCCNC(=O)c2cc(C(=O)NCCCNC(=O)c3cc(C(=O)NCCCN)c(OC)cc3OC)c(OC)cc2OC)cc1C(=O)NCCCN [Compound 408] | < 5.00 | < 5.30 | < 5.30 | < 5.00 |
| COc1cc(OC)c(C(=O)NCCCNC(=O)c2cc(C(=O)NCCCN)c(OC)cc2OC)cc1C(=O)O [Compound 409] | < 5.00 | < 5.30 | < 5.30 | < 5.00 |
| COc1cc(OC)c(C(=O)N[C@H]2CC[C@@H](NC(=O)c3cc(C(N)=O)c(OCCCCCN)cc3OCCCCCN)CC2)cc1C(=O)N[C@H]1CC[C@@H](NC(=O)c2cc(C(N)=O)c(OCCCCCN)cc2OCCCCCN)CC1 [Compound 412] | 6.16 | 6.90 | 6.95 | 6.71 |
